Results from ChEMBL document CHEMBL1201862, “PubChem BioAssay data set” (2004).
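Protocol summary: plate cells (96-well), add compound at 5 concentrations, incubate 48 h, interpolate endpoints linearly. The concentration for 50% growth inhibition is given as GI50.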 Activity calls are given as the source filed them. Rule as the data show it: active = GI50 up to about 1.1 µM and inactive = higher.

Key:
Experiment in all cases: inhibition of tumour cell growth, NCI panel, 48 h
UACC-257 = test system: UACC-257
SN12C = test system: SN12C
Malme-3M = test system: Malme-3M
U-251 = test system: U-251
SK-MEL-2 = test system: SK-MEL-2
HCT-116 = test system: HCT-116
SK-OV-3 = test system: SK-OV-3
LXFL 529 = test system: LXFL 529
LOX IMVI = test system: LOX IMVI
TK-10 = test system: TK-10
NCI-H460 = test system: NCI-H460
SF-539 = test system: SF-539
IGROV-1 = test system: IGROV-1
OVCAR-5 = test system: OVCAR-5
OVCAR-8 = test system: OVCAR-8
A549 = test system: A549
SK-MEL-28 = test system: SK-MEL-28
MOLT-4 = test system: MOLT-4
CCRF-CEM = test system: CCRF-CEM
CAKI-1 = test system: CAKI-1
NCI-H522 = test system: NCI-H522
M19-MEL = test system: M19-MEL
UACC-62 = test system: UACC-62
NCI-H226 = test system: NCI-H226
DLD-1 = test system: DLD-1
SW-620 = test system: SW-620
K562 = test system: K562
SNB-75 = test system: SNB-75
RPMI-8226 = test system: RPMI-8226
HOP-62 = test system: HOP-62
NCI-H23 = test system: NCI-H23
DMS-273 = test system: DMS-273
OVCAR-3 = test system: OVCAR-3
SNB-19 = test system: SNB-19
HCT-15 = test system: HCT-15
SR = test system: SR
COLO 205 = test system: COLO 205
EKVX = test system: EKVX
UO-31 = test system: UO-31
DMS-114 = test system: DMS-114
HL-60 = test system: HL-60
SNB-78 = test system: SNB-78
SK-MEL-5 = test system: SK-MEL-5
RXF 393 = test system: RXF 393
HT-29 = test system: HT-29
786-0 = test system: 786-0
HCC 2998 = test system: HCC 2998
KM-20L2 = test system: KM-20L2
SF-268 = test system: SF-268
ACHN = test system: ACHN
SF-295 = test system: SF-295
M14 = test system: M14
KM12 = test system: KM12
A498 = test system: A498
OVCAR-4 = test system: OVCAR-4
XF498 = test system: XF498
HOP-92 = test system: HOP-92

CC(C(=O)n1c2ccccc2c2ccccc21)N(c1ccccc1)c1ccccc1 (stereo not given) was tested, and the GI50 (UACC-257) was 17.9 µM (inactive), the GI50 (SN12C) was 19.9 µM (inactive) and the GI50 (Malme-3M) was 15.1 µM (inactive). The GI50 (U-251) was 17.8 µM (inactive), the GI50 (SK-MEL-2) was 15.1 µM (inactive) and the GI50 (HCT-116) was 18.7 µM (inactive). For the same compound, the GI50 (SK-OV-3) was 18.7 µM (inactive), the GI50 (LXFL 529) was 14.4 µM (inactive) and the GI50 (LOX IMVI) was 16.7 µM (inactive). The GI50 (TK-10) was 20 µM (inactive), the GI50 (NCI-H460) was 34.6 µM (inactive) and the GI50 (SF-539) was 19.2 µM (inactive). For the same compound, the GI50 (IGROV-1) was 18.3 µM (inactive), the GI50 (OVCAR-5) was 18.4 µM (inactive) and the GI50 (OVCAR-8) was 18.6 µM (inactive). For the same compound, the GI50 (A549) was 20.4 µM (inactive), the GI50 (SK-MEL-28) was 19.1 µM (inactive) and the GI50 (MOLT-4) was 11 µM (inactive). For the same compound, the GI50 (CCRF-CEM) was 1.64 µM (inactive), the GI50 (CAKI-1) was 14.5 µM (inactive) and the GI50 (NCI-H522) was 2.75 µM (inactive). For the same compound, the GI50 (M19-MEL) was 18.5 µM (inactive), the GI50 (UACC-62) was 17.6 µM (inactive) and the GI50 (NCI-H226) was 23.7 µM (inactive). The GI50 (DLD-1) was 17.8 µM (inactive), the GI50 (SW-620) was 19.8 µM (inactive) and the GI50 (K562) was 16.9 µM (inactive). For the same compound, the GI50 (SNB-75) was 20.2 µM (inactive), the GI50 (RPMI-8226) was 16.3 µM (inactive) and the GI50 (HOP-62) was 16.3 µM (inactive). For the same compound, the GI50 (NCI-H23) was 18.9 µM (inactive), the GI50 (DMS-273) was 18.7 µM (inactive) and the GI50 (OVCAR-3) was 17.8 µM (inactive). The GI50 (SNB-19) was 45.1 µM (inactive), the GI50 (HCT-15) was 17 µM and the GI50 (SR) was 8.93 µM (inactive). For the same compound, the GI50 (COLO 205) was 17.4 µM (inactive), the GI50 (EKVX) was 19.4 µM (inactive) and the GI50 (UO-31) was 20.6 µM (inactive). For the same compound, the GI50 (DMS-114) was 17.4 µM (inactive), the GI50 (HL-60) was 4.46 µM (inactive) and the GI50 (SNB-78) was 15.6 µM (inactive). For the same compound, the GI50 (SK-MEL-5) was 20.1 µM (inactive), the GI50 (RXF 393) was 14.6 µM (inactive) and the GI50 (HT-29) was 19.5 µM (inactive). The GI50 (786-0) was 16.6 µM (inactive), the GI50 (HCC 2998) was 16.3 µM (inactive) and the GI50 (KM-20L2) was 18.9 µM (inactive). For the same compound, the GI50 (SF-268) was 19.3 µM (inactive), the GI50 (ACHN) was 16.6 µM (inactive) and the GI50 (SF-295) was 19.4 µM (inactive). For the same compound, the GI50 (M14) was 16.7 µM (inactive).
CC(C)OP(=O)(OC(C)C)c1nn(-c2ccc([N+](=O)[O-])cc2)c(=N)s1 was tested, and the GI50 (KM12) was > 100 µM (inactive), the GI50 (UACC-257) was 38.1 µM (inactive) and the GI50 (SN12C) was > 100 µM (inactive). For the same compound, the GI50 (Malme-3M) was > 100 µM (inactive), the GI50 (U-251) was > 100 µM (inactive) and the GI50 (HCT-116) was > 100 µM (inactive). For the same compound, the GI50 (SK-OV-3) was > 100 µM (inactive), the GI50 (TK-10) was > 100 µM (inactive) and the GI50 (NCI-H460) was > 100 µM (inactive). For the same compound, the GI50 (SF-539) was > 100 µM (inactive), the GI50 (IGROV-1) was > 100 µM (inactive) and the GI50 (A498) was > 100 µM (inactive). For the same compound, the GI50 (OVCAR-5) was > 100 µM (inactive), the GI50 (OVCAR-8) was > 100 µM (inactive) and the GI50 (A549) was > 100 µM (inactive). For the same compound, the GI50 (SK-MEL-28) was > 100 µM (inactive), the GI50 (MOLT-4) was 75.9 µM (inactive) and the GI50 (CCRF-CEM) was > 100 µM (inactive). For the same compound, the GI50 (CAKI-1) was > 100 µM (inactive), the GI50 (NCI-H522) was 47.2 µM (inactive) and the GI50 (M19-MEL) was > 100 µM (inactive). For the same compound, the GI50 (UACC-62) was > 100 µM (inactive), the GI50 (DLD-1) was > 100 µM (inactive) and the GI50 (OVCAR-4) was > 100 µM (inactive). For the same compound, the GI50 (SW-620) was > 100 µM (inactive), the GI50 (K562) was 61.8 µM (inactive) and the GI50 (XF498) was 89.5 µM (inactive). For the same compound, the GI50 (SNB-75) was 15 µM (inactive), the GI50 (RPMI-8226) was > 100 µM (inactive) and the GI50 (HOP-62) was > 100 µM (inactive). For the same compound, the GI50 (NCI-H23) was > 100 µM (inactive), the GI50 (OVCAR-3) was 77.8 µM (inactive) and the GI50 (SNB-19) was > 100 µM (inactive). For the same compound, the GI50 (HCT-15) was over 100 µM, the GI50 (COLO 205) was > 100 µM (inactive) and the GI50 (EKVX) was > 100 µM (inactive). For the same compound, the GI50 (UO-31) was 60.4 µM (inactive), the GI50 (DMS-114) was 56.9 µM (inactive) and the GI50 (HL-60) was 68.1 µM (inactive). The GI50 (SK-MEL-5) was 69.5 µM (inactive), the GI50 (HT-29) was > 100 µM (inactive) and the GI50 (HCC 2998) was 65.5 µM (inactive). The GI50 (KM-20L2) was > 100 µM (inactive), the GI50 (SF-268) was > 100 µM (inactive) and the GI50 (ACHN) was 80.5 µM (inactive). For the same compound, the GI50 (SF-295) was > 100 µM (inactive), the GI50 (HOP-92) was > 100 µM (inactive) and the GI50 (M14) was > 100 µM (inactive).
In the case of CC(=O)Nc1[nH]c(=O)[nH]c(=O)c1N(C(C)=O)C(C)=O, the GI50 (KM12) is reported as > 100 µM (inactive), the GI50 (UACC-257) is reported as > 100 µM (inactive) and the GI50 (SN12C) is reported as > 100 µM (inactive). The GI50 (Malme-3M) was > 100 µM (inactive), the GI50 (U-251) was > 100 µM (inactive) and the GI50 (SK-MEL-2) was > 100 µM (inactive). For the same compound, the GI50 (HCT-116) was > 100 µM (inactive), the GI50 (LXFL 529) was > 100 µM (inactive) and the GI50 (LOX IMVI) was > 100 µM (inactive). For the same compound, the GI50 (NCI-H460) was > 100 µM (inactive), the GI50 (SF-539) was > 100 µM (inactive) and the GI50 (IGROV-1) was > 100 µM (inactive). For the same compound, the GI50 (A498) was > 100 µM (inactive), the GI50 (OVCAR-5) was > 100 µM (inactive) and the GI50 (OVCAR-8) was > 100 µM (inactive). The GI50 (A549) was > 100 µM (inactive), the GI50 (SK-MEL-28) was > 100 µM (inactive) and the GI50 (MOLT-4) was > 100 µM (inactive). The GI50 (CCRF-CEM) was > 100 µM (inactive), the GI50 (CAKI-1) was > 100 µM (inactive) and the GI50 (M19-MEL) was > 100 µM (inactive). The GI50 (UACC-62) was > 100 µM (inactive), the GI50 (NCI-H226) was > 100 µM (inactive) and the GI50 (DLD-1) was > 100 µM (inactive). For the same compound, the GI50 (OVCAR-4) was > 100 µM (inactive), the GI50 (SW-620) was > 100 µM (inactive) and the GI50 (K562) was > 100 µM (inactive). The GI50 (XF498) was > 100 µM (inactive), the GI50 (RPMI-8226) was > 100 µM (inactive) and the GI50 (DMS-273) was > 100 µM (inactive). The GI50 (OVCAR-3) was > 100 µM (inactive), the GI50 (SNB-19) was > 100 µM (inactive) and the GI50 (HCT-15) was over 100 µM. The GI50 (COLO 205) was > 100 µM (inactive), the GI50 (EKVX) was > 100 µM (inactive) and the GI50 (UO-31) was > 100 µM (inactive). The GI50 (DMS-114) was > 100 µM (inactive), the GI50 (HL-60) was > 100 µM (inactive) and the GI50 (SNB-78) was > 100 µM (inactive). For the same compound, the GI50 (SK-MEL-5) was > 100 µM (inactive), the GI50 (RXF 393) was > 100 µM (inactive) and the GI50 (HT-29) was > 100 µM (inactive). For the same compound, the GI50 (786-0) was > 100 µM (inactive), the GI50 (HCC 2998) was > 100 µM (inactive) and the GI50 (KM-20L2) was > 100 µM (inactive). The GI50 (SF-268) was > 100 µM (inactive), the GI50 (ACHN) was > 100 µM (inactive) and the GI50 (SF-295) was > 100 µM (inactive). For the same compound, the GI50 (HOP-92) was > 100 µM (inactive) and the GI50 (M14) was > 100 µM (inactive).
